Data published in article PMC9855386, “Obtaining a Monoclonal Antibody against a Novel Prometryn-Like Hapten and Characterization of Its Selectivity for Triazine Herbicides” (Biosensors, 2022).

Tested on: 7D4 mAb (mouse monoclonal anti-prometryn antibody)
Test: ic-ELISA cross-reactivity of the 7D4 mAb with triazines
Type: binding
Conditions: for IC50: ic-ELISA, analyte 1000-15.625 and 0 ng/mL; for Cross-Reactivity: relative to prometryn = 100%
Protocol: The ic-ELISA method was used to screen the best-performing fusion mouse sera. They were used to establish the standard curve of antibodies by detecting the supernatant of positive cells. The buffer required for ic-ELISA was the same as previously reported. The specific steps of the operation are as follows: (1) The coated antigen was added to the microplate by diluting it with the required coating solutions (CBS, pH 9.6, 0.05 mol/L). Each well contained 100 µL, which was incubated at 37 °C for three h before being washed three times with washing buffer (PBST, PBS containing 0.1% Tween-20). (2) With sample dilution buffer (PBSTG, PBST containing 0.1% gelatin), the standard prometryn sample and the antiserum/antibody from mice were diluted to the required concentration. The microplate was incubated for 30 min at 37 °C with 50 µL of diluted antiserum or antibody and standard samples of various concentrations. PBST was used three times to wash the dishes. (3) Then, 100 µL of PBSTG-diluent IgG HRP (labeled goat anti-mouse IgG with HRP) was added to each well. After 30 min at 37 °C, the plate was cleaned three times with PBST. (4) Each well was incubated for 15 min in the dark at 25 °C with 100 µL of TMB color developing solution. To stop the reaction, 50 µL of the hydrochloric acid solution was added to each well. The absorbance at OD450 nm was measured with a TECAN Infinite M200 PRO microplate reader from Männedorf, Switzerland.
The ic-ELISA method was used to determine the ideal antibody and antigen mix. The coating antigen and antibody concentration used in the experiment was 1 mg/mL. The dilution multiples of the coating were 1 × 10^3, 2 × 10^3, 4 × 10^3, and 8 × 10^3. The prometryn standard was 1000 ng/mL. The best concentration combination of antigen and antibody was selected to establish the standard curve of the antibody. Prometryn standards were diluted to 1000, 500, 250, 125, 62.5, 31.25, 15.625, 7.8125, 3.90625, and 0 ng/mL, with PBSTG for subsequent ic-ELISA experiments. The standard curve was determined by ic-ELISA. […] Each measured OD value in the curve is the average of three independent repeats. The 7D4 mAb’s inhibition rate was well linearly correlated with the prometryn concentration. […] The 7D4 mAb type was identified as IgG1 using a mouse antibody isotyping kit from Sigma®, St. Louis, MO, USA.
Eleven triazine herbicides were selected to determine their cross-reactivity with 7D4 mAb. […] The cross-reaction rate with the other seven triazines was less than 1%. The hybridoma cell line 7D4 screened in this study can specifically recognize prometryn. […] The cross-reaction rate may vary depending on the immunoassay format and the competitive hapten preparation used.

`CCNc1nc(NC(C)(C)C)nc(SC)n1` [Terbutryn] was tested. Which IC50 did it give?
The IC50 was over 1 µg/mL.

And the Cross-Reactivity?
Its Cross-Reactivity is under 0.39%.

Which results are given for `CCNc1nc(NC(C)C)nc(SC)n1` [Ametryn]?
IC50: 0.011221 µg/mL; Cross-Reactivity: 34.77%; Cross-Reactivity (listed as ametryn): 34.77%

How did the IC50 turn out when `CCNc1nc(NCC)nc(SC)n1` [Simetryn] was run?
Its IC50 is over 1 µg/mL.

What about the Cross-Reactivity of the same molecule?
The Cross-Reactivity was under 0.39%.

`CCNc1nc(Cl)nc(NC(C)C)n1` [Atrazine] was tested. Which IC50 did it give?
The IC50 was over 1 µg/mL.

And the Cross-Reactivity?
Its Cross-Reactivity is under 0.39%.

How did the IC50 turn out when `CC(C)Nc1nc(Cl)nc(NC(C)C)n1` [Propazine] was run?
Its IC50 is 0.398011 µg/mL.

What about the Cross-Reactivity of the same molecule?
Its Cross-Reactivity is 0.98%.

Which IC50 does the source give for `CCNc1nc(Cl)nc(NC(C)(C)C)n1` [Terbuthylazine] here?
The IC50 was over 1 µg/mL.

And the Cross-Reactivity?
Its Cross-Reactivity is under 0.39%.

For `COc1nc(NC(C)C)nc(NC(C)C)n1` [Prometon], which IC50 is on record?
The IC50 was over 1 µg/mL.

And the Cross-Reactivity?
The Cross-Reactivity was under 0.39%.

With `CCNc1nc(Cl)nc(NCC)n1` [Simazine] as the molecule, how does the IC50 read?
Its IC50 is over 1 µg/mL.

What about the Cross-Reactivity of the same molecule?
The Cross-Reactivity was under 0.39%.

Which results are given for `CNc1nc(NC(C)C)nc(SC)n1` [Desmetryn]?
IC50: 0.021566 µg/mL; Cross-Reactivity: 18.09%; Cross-Reactivity (listed as desmetryn): 18.09%

For `CCNc1nc(NC(C)(C)C)nc(OC)n1` [Terbumeton], which IC50 is on record?
The IC50 was 0.051091 µg/mL.

And the Cross-Reactivity?
Its Cross-Reactivity is 7.64%.

And the Cross-Reactivity (listed as terbumeton)?
The Cross-Reactivity was 7.64%.
